Values quoted from earlier work as cited in patent publication US7772228B2, “Method for treatment of bacterial infections with once or twice-weekly administered rifalazil” (priority 1998, dated 2010).

System: M. tuberculosis
Conditions: depending on the degree of resistance to rifampin; cited from earlier work

Structure (SMILES): CO[C@H]1/C=C/O[C@@]2(C)Oc3c(C)c(O)c4c(O)c(c(/C=N/N5CCN(C)CC5)c(O)c4c3C2=O)NC(=O)/C(C)=C\C=C\[C@H](C)[C@H](O)[C@@H](C)[C@@H](O)[C@@H](C)[C@H](OC(C)=O)[C@@H]1C [Rifampin, rifampin, reference compound]
- MICs for MTB, range: <0.002 to 4.0 µg/mL
